{"source": "the supplement of paper PMC11628255", "about": "“Interference of metal ions on the bioluminescent signal of firefly, Renilla, and NanoLuc luciferases in high-throughput screening assays” (Frontiers in Chemistry, 2024)", "assay_in_all_cases": "normalised percent inhibition of luminescence (vs positive and negative controls); higher = stronger inhibition", "key": {"[1]": {"system": "Renilla luciferase (RLuc)", "method": "(§1)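 Concentration-response (>=11 concentrations) of metal salts on purified FLuc, NLuc or RLuc luminescence in screening (SC) or 100 mM HEPES (H) buffer; salt pre-incubated with enzyme 10 min at RT, read 10 min after substrate. Normalised percent inhibition vs plate positive (PTC-124, isradipine, BTS) and DMSO negative controls; triplicate wells.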"}, "[2]": {"system": "NanoLuc luciferase (NLuc)", "method": "as §1"}, "[3]": {"system": "firefly luciferase (FLuc)", "method": "as §1"}, "[4]": {"details": "metal salt concentration 0.0001 mM, 100 mM HEPES buffer"}, "[5]": {"details": "metal salt concentration 0.00025 mM, 100 mM HEPES buffer"}, "[6]": {"details": "metal salt concentration 0.0005 mM, 100 mM HEPES buffer"}, "[7]": {"details": "metal salt concentration 0.001 mM, 100 mM HEPES buffer"}, "[8]": {"details": "metal salt concentration 0.002 mM, screening conditions buffer"}, "[9]": {"details": "metal salt concentration 0.005 mM, screening conditions buffer"}, "[10]": {"details": "metal salt concentration 0.01 mM, screening conditions buffer"}, "[11]": {"details": "metal salt concentration 0.02 mM, screening conditions buffer"}, "[12]": {"details": "metal salt concentration 0.025 mM, 100 mM HEPES buffer"}, "[13]": {"details": "metal salt concentration 0.05 mM, 100 mM HEPES buffer"}, "[14]": {"details": "metal salt concentration 0.05 mM, screening conditions buffer"}, "[15]": {"details": "metal salt concentration 0.1 mM, 100 mM HEPES buffer"}, "[16]": {"details": "metal salt concentration 0.1 mM, screening conditions buffer"}, "[17]": {"details": "metal salt concentration 0.2 mM, screening conditions buffer"}, "[18]": {"details": "metal salt concentration 0.5 mM, 100 mM HEPES buffer"}, "[19]": {"details": "metal salt concentration 0.5 mM, screening conditions buffer"}, "[20]": {"details": "metal salt concentration 1 mM, 100 mM HEPES buffer"}, "[21]": {"details": "metal salt concentration 1 mM, screening conditions buffer"}, "[22]": {"details": "metal salt concentration 2.5 mM, 100 mM HEPES buffer"}, "[23]": {"details": "metal salt concentration 2.5 mM, screening conditions buffer"}, "[24]": {"details": "metal salt concentration 5 mM, 100 mM HEPES buffer"}, "[25]": {"details": "metal salt concentration 5 mM, screening conditions buffer"}}, "note": "± gives the standard deviation of the averaged measurements."}
{"smiles": "O=[N+]([O-])[O-].[Ag+]", "note": "[silver nitrate]", "values": [{"measurement": "normalised percent inhibition", "setting": "[1]; [4]", "result": "2.89 ± 12", "unit": "%"}, {"measurement": "normalised percent inhibition", "setting": "[1]; [5]", "result": "-2.96 ± 23", "unit": "%"}, {"measurement": "normalised percent inhibition", "setting": "[1]; [6]", "result": "-1.85 ± 16", "unit": "%"}, {"measurement": "normalised percent inhibition", "setting": "[1]; [7]", "result": "-11.8 ± 14", "unit": "%"}, {"measurement": "normalised percent inhibition", "setting": "[1]; [8]", "result": "10.7 ± 8.6", "unit": "%"}, {"measurement": "normalised percent inhibition", "setting": "[1]; [9]", "result": "8.28 ± 9.9", "unit": "%"}, {"measurement": "normalised percent inhibition", "setting": "[1]; metal salt concentration 0.01 mM, 100 mM HEPES buffer", "result": "-3.09 ± 29", "unit": "%"}, {"measurement": "normalised percent inhibition", "setting": "[1]; [10]", "result": "13 ± 3.1", "unit": "%"}, {"measurement": "normalised percent inhibition", "setting": "[1]; metal salt concentration 0.02 mM, 100 mM HEPES buffer", "result": "-4.38 ± 18", "unit": "%"}, {"measurement": "normalised percent inhibition", "setting": "[1]; [11]", "result": "14.2 ± 12", "unit": "%"}, {"measurement": "normalised percent inhibition", "setting": "[1]; [12]", "result": "84.8 ± 8.2", "unit": "%"}, {"measurement": "normalised percent inhibition", "setting": "[1]; metal salt concentration 0.04 mM, 100 mM HEPES buffer", "result": "47.3 ± 12", "unit": "%"}, {"measurement": "normalised percent inhibition", "setting": "[1]; [13]", "result": "104 ± 3.7", "unit": "%"}, {"measurement": "normalised percent inhibition", "setting": "[1]; [14]", "result": "38.8 ± 7.9", "unit": "%"}, {"measurement": "normalised percent inhibition", "setting": "[1]; [15]", "result": "107 ± 1.2", "unit": "%"}, {"measurement": "normalised percent inhibition", "setting": "[1]; [16]", "result": "81.2 ± 3.3", "unit": "%"}, {"measurement": "normalised percent inhibition", "setting": "[1]; [17]", "result": "101 ± 3.2", "unit": "%"}, {"measurement": "normalised percent inhibition", "setting": "[1]; [18]", "result": "106 ± 1.4", "unit": "%"}, {"measurement": "normalised percent inhibition", "setting": "[1]; [19]", "result": "105.9 ± 0.6", "unit": "%"}, {"measurement": "normalised percent inhibition", "setting": "[1]; [20]", "result": "106 ± 1.3", "unit": "%"}, {"measurement": "normalised percent inhibition", "setting": "[1]; [21]", "result": "105.9 ± 0.36", "unit": "%"}, {"measurement": "normalised percent inhibition", "setting": "[1]; [22]", "result": "106.7 ± 0.43", "unit": "%"}, {"measurement": "normalised percent inhibition", "setting": "[1]; [23]", "result": "106.2 ± 0.36", "unit": "%"}, {"measurement": "normalised percent inhibition", "setting": "[1]; [24]", "result": "106 ± 1.5", "unit": "%"}, {"measurement": "normalised percent inhibition", "setting": "[1]; [25]", "result": "106.1 ± 0.41", "unit": "%"}, {"measurement": "normalised percent inhibition", "setting": "[2]; [4]", "result": "1.65 ± 1.5", "unit": "%"}, {"measurement": "normalised percent inhibition", "setting": "[2]; [5]", "result": "-1.44 ± 2.1", "unit": "%"}, {"measurement": "normalised percent inhibition", "setting": "[2]; [6]", "result": "-1.42 ± 4.4", "unit": "%"}, {"measurement": "normalised percent inhibition", "setting": "[2]; [7]", "result": "2.97 ± 6.6", "unit": "%"}, {"measurement": "normalised percent inhibition", "setting": "[2]; [8]", "result": "20.8 ± 3.6", "unit": "%"}, {"measurement": "normalised percent inhibition", "setting": "[2]; [9]", "result": "80.1 ± 3.5", "unit": "%"}, {"measurement": "normalised percent inhibition", "setting": "[2]; [10]", "result": "88 ± 46", "unit": "%"}, {"measurement": "normalised percent inhibition", "setting": "[2]; [11]", "result": "107 ± 28", "unit": "%"}, {"measurement": "normalised percent inhibition", "setting": "[2]; [12]", "result": "99.59 ± 0.3", "unit": "%"}, {"measurement": "normalised percent inhibition", "setting": "[2]; [13]", "result": "51.4 ± 54", "unit": "%"}, {"measurement": "normalised percent inhibition", "setting": "[2]; [14]", "result": "118 ± 17", "unit": "%"}, {"measurement": "normalised percent inhibition", "setting": "[2]; [15]", "result": "100.8 ± 0.22", "unit": "%"}, {"measurement": "normalised percent inhibition", "setting": "[2]; [16]", "result": "119 ± 17", "unit": "%"}, {"measurement": "normalised percent inhibition", "setting": "[2]; [17]", "result": "133.6 ± 0.46", "unit": "%"}, {"measurement": "normalised percent inhibition", "setting": "[2]; [18]", "result": "101.7 ± 0.27", "unit": "%"}, {"measurement": "normalised percent inhibition", "setting": "[2]; [19]", "result": "119 ± 16", "unit": "%"}, {"measurement": "normalised percent inhibition", "setting": "[2]; [20]", "result": "101.7 ± 0.68", "unit": "%"}, {"measurement": "normalised percent inhibition", "setting": "[2]; [21]", "result": "120 ± 16", "unit": "%"}, {"measurement": "normalised percent inhibition", "setting": "[2]; [22]", "result": "101.97 ± 0.092", "unit": "%"}, {"measurement": "normalised percent inhibition", "setting": "[2]; [23]", "result": "134.8 ± 0.48", "unit": "%"}, {"measurement": "normalised percent inhibition", "setting": "[2]; [24]", "result": "102 ± 0.14", "unit": "%"}, {"measurement": "normalised percent inhibition", "setting": "[2]; [25]", "result": "135.3 ± 0.097", "unit": "%"}, {"measurement": "normalised percent inhibition", "setting": "[3]; metal salt concentration 1.56 nM, screening conditions buffer", "result": "-3.5 ± 6", "unit": "%"}, {"measurement": "normalised percent inhibition", "setting": "[3]; metal salt concentration 3.13 nM, screening conditions buffer", "result": "8.07 ± 5.3", "unit": "%"}, {"measurement": "normalised percent inhibition", "setting": "[3]; metal salt concentration 6.25 nM, screening conditions buffer", "result": "-11.6 ± 7.4", "unit": "%"}, {"measurement": "normalised percent inhibition", "setting": "[3]; metal salt concentration 12.5 nM, screening conditions buffer", "result": "2.67 ± 4.2", "unit": "%"}, {"measurement": "normalised percent inhibition", "setting": "[3]; metal salt concentration 25 nM, screening conditions buffer", "result": "-5.14 ± 3.2", "unit": "%"}, {"measurement": "normalised percent inhibition", "setting": "[3]; metal salt concentration 50 nM, screening conditions buffer", "result": "1.37 ± 6.6", "unit": "%"}, {"measurement": "normalised percent inhibition", "setting": "[3]; [4]", "result": "98 ± 2.2", "unit": "%"}, {"measurement": "normalised percent inhibition", "setting": "[3]; metal salt concentration 0.0001 mM, screening conditions buffer", "result": "0.486 ± 5.2", "unit": "%"}, {"measurement": "normalised percent inhibition", "setting": "[3]; [5]", "result": "100.3 ± 0.19", "unit": "%"}, {"measurement": "normalised percent inhibition", "setting": "[3]; metal salt concentration 0.00025 mM, screening conditions buffer", "result": "54.3 ± 6.3", "unit": "%"}, {"measurement": "normalised percent inhibition", "setting": "[3]; [6]", "result": "99.84 ± 0.56", "unit": "%"}, {"measurement": "normalised percent inhibition", "setting": "[3]; metal salt concentration 0.0005 mM, screening conditions buffer", "result": "100.1 ± 0.16", "unit": "%"}, {"measurement": "normalised percent inhibition", "setting": "[3]; [7]", "result": "100.3 ± 0.19", "unit": "%"}, {"measurement": "normalised percent inhibition", "setting": "[3]; metal salt concentration 0.001 mM, screening conditions buffer", "result": "100.19 ± 0.055", "unit": "%"}, {"measurement": "normalised percent inhibition", "setting": "[3]; [8]", "result": "100.6 ± 0.14", "unit": "%"}, {"measurement": "normalised percent inhibition", "setting": "[3]; [9]", "result": "100.7 ± 0.58", "unit": "%"}, {"measurement": "normalised percent inhibition", "setting": "[3]; [10]", "result": "100.4 ± 0.49", "unit": "%"}, {"measurement": "normalised percent inhibition", "setting": "[3]; [11]", "result": "100.7 ± 0.22", "unit": "%"}, {"measurement": "normalised percent inhibition", "setting": "[3]; [12]", "result": "100.4 ± 0.49", "unit": "%"}, {"measurement": "normalised percent inhibition", "setting": "[3]; [13]", "result": "100.3 ± 0.68", "unit": "%"}, {"measurement": "normalised percent inhibition", "setting": "[3]; [14]", "result": "99.8 ± 1.4", "unit": "%"}, {"measurement": "normalised percent inhibition", "setting": "[3]; [15]", "result": "100.6 ± 0.19", "unit": "%"}, {"measurement": "normalised percent inhibition", "setting": "[3]; [18]", "result": "100 ± 0.68", "unit": "%"}, {"measurement": "normalised percent inhibition", "setting": "[3]; [20]", "result": "99.8 ± 1.1", "unit": "%"}, {"measurement": "normalised percent inhibition", "setting": "[3]; [22]", "result": "100.4 ± 0.49", "unit": "%"}, {"measurement": "normalised percent inhibition", "setting": "[3]; [24]", "result": "100.5 ± 0.56", "unit": "%"}]}
